Patent US12686687B2, “Compounds and uses thereof” (Foghorn Therapeutics Inc., priority 2019, dated 2026)
Read-outs that look alike come from different tables or passages of the source.

Target: T1, Nanoluciferase-BRD9 fusion protein (3×FLAG-NLuc-BRD9) in SYO-1 cells (Homo sapiens, UniProt Q9H8M2)
T1 construct: expressed in transfected cells; host or cells: SYO-1
T1 sequence (Q9H8M2 1-597): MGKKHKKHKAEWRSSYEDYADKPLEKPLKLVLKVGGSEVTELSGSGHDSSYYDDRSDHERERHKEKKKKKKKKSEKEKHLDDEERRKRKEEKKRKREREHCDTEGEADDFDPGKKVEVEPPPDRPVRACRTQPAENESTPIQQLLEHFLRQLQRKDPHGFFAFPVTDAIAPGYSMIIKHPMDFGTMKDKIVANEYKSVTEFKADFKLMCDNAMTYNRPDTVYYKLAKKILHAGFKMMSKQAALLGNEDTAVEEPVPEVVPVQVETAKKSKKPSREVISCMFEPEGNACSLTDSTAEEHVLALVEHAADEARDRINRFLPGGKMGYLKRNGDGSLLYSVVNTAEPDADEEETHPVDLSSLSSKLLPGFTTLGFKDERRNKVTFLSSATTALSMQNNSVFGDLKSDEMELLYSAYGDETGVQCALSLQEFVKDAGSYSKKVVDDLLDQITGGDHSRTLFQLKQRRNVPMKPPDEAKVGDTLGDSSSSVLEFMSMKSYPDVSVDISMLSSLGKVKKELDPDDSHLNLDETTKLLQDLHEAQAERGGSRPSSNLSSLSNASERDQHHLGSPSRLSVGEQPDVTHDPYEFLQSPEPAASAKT
Experiment: SYO1 BRD9 NanoLuc degradation assay
Type: cell-based
Details: SYO-1 cells expressing 3×FLAG-NLuc-BRD9, 6 hours incubation, 1 μM top dose, read-out: SYO1 BRD9-NanoLuc degradation IC50
Method in brief: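 Stable SYO-1 line expressing 3×FLAG-NLuc-BRD9 was seeded at 8000 cells/well, then treated next day for 6 h with 10-point 3-fold dilutions (top 1 μM final). Nano-Glo luminescence was read. % inhibition was normalised to DMSO (high control) and 1 μM reference BRD9 degrader (low control).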

| DC50 (Table 6C) [nM] | DC50 (Table 6B) [nM] | SMILES |
| --- | --- | --- |
| < 10 |  | COc1cc(-c2cn(C)c(=O)c3cc(C#N)sc23)cc(OC)c1CN1CCC(CN2CCC3(CC2)CN(c2ccc4c(c2)C(=O)N(C2CCC(=O)NC2=O)C4)C3)CC1 (stereo not shown) [Compound D101] |
| < 10 |  | COc1cc(-c2cn(C)c(=O)c3cc(C(=O)N[C@@H]4CCN(C5CCN(c6ccc7c(c6)C(=O)N([C@@H]6CCC(=O)NC6=O)C7)CC5)CC4(F)F)sc23)cc(OC)c1CN(C)C [Compound D134] |
|  | < 10 | COc1cc(-c2cn(C)c(=O)c3cc(C(=O)NC4CCN(CCCCCOc5ccc6c(c5)C(=O)N(C5CCC(=O)NC5=O)C6=O)CC4(F)F)sc23)cc(OC)c1CN(C)C (stereo not shown) [Compound D90] |
|  | > 10 | COc1cc(-c2cn(C)c(=O)c3cc(C(=O)NCC4CC5(CCN(CCN6CCN(c7ccc8c(c7)C(=O)N(C7CCC(=O)NC7=O)C8=O)CC6)CC5)O4)sc23)cc(OC)c1CN(C)C (stereo not shown) [Compound D62] |
| < 10 |  | COc1cc(-c2cn(C)c(=O)c3cc(C(=O)NC4CCN(CCN5CCC6(CC5)CN(c5ccc7c(c5)C(=O)N(C5CCC(=O)NC5=O)C7)C6)CC4(F)F)sc23)cc(OC)c1CN(C)C (stereo not shown) [Compound D175] |
| < 10 |  | COc1cc(OC)cc(-c2cn(C)c(=O)c3cc(C(=O)NC4CCN(c5cccc(OC6CCC(=O)NC6=O)c5)CC4)sc23)c1 (stereo not shown) [Compound D96] |
| < 10 |  | COc1cc(-c2cn(C)c(=O)c3cc(C(=O)NC4CCN(CCN5CCN(c6ccc7c(c6)CN(C6CCC(=O)NC6=O)C7=O)CC5)CC4(F)F)sc23)cc(OC)c1CN(C)C (stereo not shown) [Compound D196] |
| < 10 |  | COc1cc(-c2cn(C)c(=O)c3ncsc23)cc(OC)c1CN1CC(Oc2ccc3c(c2)CN(C2CCC(=O)NC2=O)C3=O)C1 (stereo not shown) [Compound D206] |
| < 10 |  | COc1cc(-c2cn(C)c(=O)c3cscc23)cc(OC)c1CN1CCC2(CC1)CN(c1ccc3c(c1)C(=O)N(C1CCC(=O)NC1=O)C3)C2 (stereo not shown) [Compound D216] |
| < 10 |  | COc1cc(-c2cn(C)c(=O)c3cc(C(=O)N[C@H]4CCN(C5CCN(c6ccc7c(c6)C(=O)N(C6CCC(=O)NC6=O)C7)CC5)CC4(F)F)sc23)cc(OC)c1CN(C)C (stereo partly shown) [Compound D167] |
|  | > 10 | COc1cc(-c2cn(C)c(=O)c3cc(C(=O)NC4CCCN(CCCCCOc5cccc6c5C(=O)N(C5CCC(=O)NC5=O)C6=O)CC4)sc23)cc(OC)c1CN(C)C (stereo not shown) [Compound D88] |
| < 10 |  | COc1cc(-c2cn(C)c(=O)c3cc(C(=O)NC4CCN(CCN5CCN(c6ccc7c(c6)C(=O)N(C6CCC(=O)NC6=O)C7)CC5)CC4(F)F)sc23)cc(OC)c1CN(C)C (stereo not shown) [Compound D200] |
| < 10 |  | COc1cc(-c2cn(C)c(=O)c3ccsc23)cc(OC)c1CN1CCN(c2ccc3c(c2)C(=O)N(C2CCC(=O)NC2=O)C3)CC1 (stereo not shown) [Compound D194] |
| > 100 |  | COc1cc(-c2cn(C)c(=O)c3cc(C(=O)NC4CCN(C5CC6(C5)CN(c5ccc7c(c5)C(=O)N(C5CCC(=O)NC5=O)C7)C6)CC4(F)F)sc23)cc(OC)c1CN(C)C (stereo not shown) [Compound D145] |
| < 10 |  | COc1cc(-c2cn(C)c(=O)c3cc(C(=O)NC4CCN(c5ccc(OC6CCC(=O)NC6=O)cc5)CC4)sc23)cc(OC)c1CN(C)C (stereo not shown) [Compound D105] |
| < 10 |  | COc1cc(-c2cn(C)c(=O)c3sncc23)cc(OC)c1CN1CC(CN2CCC3(CC2)CN(c2ccc4c(c2)C(=O)N(C2CCC(=O)NC2=O)C4)C3)C1 (stereo not shown) [Compound D201] |
| > 1000 |  | COc1cc(-c2cn(C)c(=O)c3cc(C(=O)NC4CCN(c5ccc6c(c5)C(=O)N(C5CCC(=O)N(C)C5=O)C6)CC4(F)F)sc23)cc(OC)c1CN(C)C (stereo not shown) [Compound D143] |
|  | < 10 | COc1cc(-c2cn(C)c(=O)c3cc(C(=O)NC4CCN(C)CC4(F)F)sc23)cc(OC)c1CN1CCC(CCN2CCN(c3ccc4c(c3)C(=O)N(C3CCC(=O)NC3=O)C4=O)CC2)CC1 (stereo not shown) [Compound D26] |
| < 10 |  | COc1cc(-c2cn(C)c(=O)c3cnsc23)cc(OC)c1CN1CCC2(CC1)CN(c1ccc3c(c1)C(=O)N(C1CCC(=O)NC1=O)C3=O)C2 (stereo not shown) [Compound D209] |
| < 10 |  | CCc1cc(-c2cn(C)c(=O)c3cc(C(=O)NC4CCN(C5CCN(c6ccc7c(c6)C(=O)N(C6CCC(=O)NC6=O)C7)CC5)CC4(F)F)sc23)cc(OC)c1CN(C)C (stereo not shown) [Compound D157] |
|  | > 1000 | COc1cc(-c2cn(C)c(=O)c3cc(C(=O)NC4CCN(C(=O)CN5CCC6(C5)CN(c5ccc7c(c5)C(=O)N(C5CCC(=O)NC5=O)C7=O)C6)CC4(F)F)sc23)cc(OC)c1CN(C)C (stereo not shown) [Compound D45] |
| < 10 |  | COc1cc(OC)cc(-c2cn(C)c(=O)c3cc(C(=O)NC4CCN(C5CCN(c6ccc7c(c6)C(=O)N(C6CCC(=O)NC6=O)C7)CC5)CC4(F)F)sc23)c1 (stereo not shown) [Compound D98] |

| DC50 (Table 6C) [nM] | DC50 (Table 6B) [nM] | SMILES |
| --- | --- | --- |
|  | < 10 | COc1cc(-c2cn(C)c(=O)c3cc(C(=O)NC4CCN(C(C)=O)CC4)sc23)cc(OC)c1CN1CCC(CCN2CCN(c3ccc4c(c3)C(=O)N(C3CCC(=O)NC3=O)C4=O)CC2)CC1 (stereo not shown) [Compound D27] |
| < 10 |  | COc1cc(-c2cn(C)c(=O)c3cc(C(=O)N[C@H]4CCN(c5ccc6c(c5)C(=O)N(C5CCC(=O)NC5=O)C6)CC4(F)F)sc23)cc(OC)c1CN(C)C (stereo partly shown) [Compound D152] |
| < 10 |  | COc1cc(-c2cn(C)c(=O)c3cc(C(=O)NC4CCN(C5CCN(c6ccn7c(=O)n(C8CCC(=O)NC8=O)nc7c6)CC5)CC4(F)F)sc23)cc(OC)c1CN(C)C (stereo not shown) [Compound D179] |
|  | < 10 | COc1cc(-c2cn(C)c(=O)c3cc(C(=O)NC4CCN(CCCCCOc5ccc6c(c5)C(=O)N(C5CCC(=O)NC5=O)C6=O)CC4)sc23)cc(OC)c1CN(C)C (stereo not shown) [Compound D89] |
|  | > 10 | COc1cc(-c2cn(C)c(=O)c3cc(C(=O)NC4CC5CC4CN5CCCN4CCN(c5ccc6c(c5)C(=O)N(C5CCC(=O)NC5=O)C6=O)CC4)sc23)cc(OC)c1CN(C)C (stereo not shown) [Compound D69] |
|  | > 10 | COc1cc(-c2cn(C)c(=O)c3cc(C(=O)NC4CCC5(CCN(C(=O)CCN6CCN(c7ccc8c(c7)C(=O)N(C7CCC(=O)NC7=O)C8=O)CC6)C5)C4)sc23)cc(OC)c1CN(C)C (stereo not shown) [Compound D47] |
| < 10 |  | CNc1cc2c(=O)n(C)cc(-c3cc(OC)c(CN4CCC5(CC4)CN(c4ccc6c(c4)C(=O)N(C4CCC(=O)NC4=O)C6)C5)c(OC)c3)c2s1 (stereo not shown) [Compound D97] |
| < 10 |  | COCc1cc2c(=O)n(C)cc(-c3cc(OC)c(CN4CCC5(CC4)CN(c4ccc6c(c4)C(=O)N(C4CCC(=O)NC4=O)C6)C5)c(OC)c3)c2s1 (stereo not shown) [Compound D119] |
| < 10 |  | COc1cc(-c2cn(C)c(=O)c3ccsc23)cc(OC)c1C1CCN(c2ccc3c(c2)C(=O)N(C2CCC(=O)NC2=O)C3)CC1 (stereo not shown) [Compound D123] |
| > 100 |  | COc1cc(-c2cn(C)c(=O)c3ncsc23)cc(OC)c1CN1CCC2(CC1)CN(c1ccc3c(c1)C(=O)N(C1CCC(=O)NC1=O)C3)C2 (stereo not shown) [Compound D204] |
| < 10 |  | COc1cc(-c2cn(C)c(=O)c3cc(C(=O)NC4CCN(c5cccc(OC6CCC(=O)NC6=O)c5)CC4)sc23)cc(OC)c1CN(C)C (stereo not shown) [Compound D108] |
|  | > 10 | COc1cc(-c2cn(C)c(=O)c3cc(NC(=O)C4CCN(CCCCCOc5cccc6c5C(=O)N(C5CCC(=O)NC5=O)C6=O)CC4(F)F)sc23)cc(OC)c1CN(C)C (stereo not shown) [Compound D59] |
| < 10 |  | COc1cc(-c2cn(C)c(=O)c3cc(C(=O)NC4CN(C5CCN(c6ccc7c(c6)C(=O)N(C6CCC(=O)NC6=O)C7=O)CC5)CC4(F)F)sc23)cc(OC)c1CN(C)C (stereo not shown) [Compound D187] |
| < 10 |  | COc1cc(-c2cn(C)c(=O)c3sncc23)cc(OC)c1CN1CCC2(CC1)CN(c1ccc3c(c1)C(=O)N(C1CCC(=O)NC1=O)C3)C2 (stereo not shown) [Compound D203] |
|  | < 10 | COc1cc(-c2cn(C)c(=O)c3cc(C(=O)NC4CCN(CCCCCOc5cccc6c5C(=O)N(C5CCC(=O)NC5=O)C6=O)CC4(F)F)sc23)cc(OC)c1CN(C)C (stereo not shown) [Compound D16] |
| < 10 |  | COc1cc(-c2cn(C)c(=O)c3cc(C(=O)NC4CCN(C5CCN(c6ccc7c(c6)C(=O)N(C6CCC(=O)NC6=O)C7)CC5)CC4)sc23)cc(OC)c1CN(C)C (stereo not shown) [Compound D150] |
| < 10 |  | COc1cc(-c2cn(C)c(=O)c3scnc23)cc(OC)c1CN1CCC2(CC1)CN(c1ccc3c(c1)C(=O)N(C1CCC(=O)NC1=O)C3)C2 (stereo not shown) [Compound D215] |
| < 10 |  | COc1cc(-c2cn(C)c(=O)c3ccsc23)cc(OC)c1CN1CCC(CN2CCC3(CC2)CC(Oc2ccc4c(c2)C(=O)N(C2CCC(=O)NC2=O)C4=O)C3)CC1 (stereo not shown) [Compound D189] |
| < 10 |  | Cn1cc(-c2ccc(-c3ccc4c(c3)C(=O)N(C3CCC(=O)NC3=O)C4)c(C(F)(F)F)c2)c2sccc2c1=O (stereo not shown) [Compound D125] |
| < 10 |  | COc1cc(OC)cc(-c2cn(C)c(=O)c3cc(C(=O)NC4CCN(c5ccc6c(c5)C(=O)N(C5CCC(=O)NC5=O)C6)CC4)oc23)c1 (stereo not shown) [Compound D219] |
| < 10 |  | COc1cc(-c2cn(C)c(=O)c3cc(C(=O)NC4CN(c5ccc6c(c5)C(=O)N(C5CCC(=O)NC5=O)C6=O)CC4(F)F)sc23)cc(OC)c1CN(C)C (stereo not shown) [Compound D190] |
